Laboratory results as given in patent US5952326A, “Tetralin and chroman derivatives useful in the treatment of asthma, arthritis and related diseases” (Pfizer Inc., priority 1997, dated 1999).

Tested on: PAF (platelet activating factor) lethality
Assay: PAF lethality assay procedure
Assay type: in vivo, mice (CD1 males)
Conditions: Mus musculus, po, positive control, mice treated orally 45 minutes before i.v. PAF injection, approximate
Experimental: To evaluate the compounds of the formula (I) in vivo, they are tested by the so-called PAF lethality assay procedure:
Mice: CD1 males, all approximately the same weight (approximately 26 grams), 12 per group.
Vehicle for oral drug dosing: EES (5% ethanol, 5% emulphor, 90% saline). Stored at room temperature.
Drugs: For routine screening at 50 mg/kg, 20 mg drug is dissolved in 4 ml EES, using sonication in a sonicator bath or grinding in a Ten Broeck grinder to dissolve drug if necessary. If solubility is still a problem, the drug is used as a suspension.
Vehicle for i.v. Injection: Saline with 2.5 mg/ml Bovine Serum Albumin (BSA, Sigma #A4378) and 0.05 mg/ml Propranolol (Sigma #P0884). Prepared fresh daily and kept at room temperature.
Platelet Activating Factor (PAF): A 10 microm stock solution is prepared by dissolving 1 mg PAF (Calbiochem #429460) in 0.18 ml ethanol. This is stored at -20° C. and is diluted in vehicle (see above) the day of use. The concentration of PAF used is calibrated so that when injected at 0.1 ml/10 grams body weight, it will kill approximately 80% of untreated controls. This is usually about […] (a 1 to 2034 dilution from stock). […]
45 minutes before PAF injection, mice are treated orally with drug using 0.1 ml/10 grams body weight. […] Results are expressed as percent mortality as compared to controls. […]

`O=C1CCN(c2ccccc2)N1` [Phenidone] was tested, and the ED50 was about 25 mg/kg.
